In data set [1] the target is Metabotropic glutamate receptor 1 (Homo sapiens, UniProt Q13255). Kind of data set: Antagonist activity at human mGluR1a expressed in CHO cells assessed by measuring intracellular calcium by FLIPR assay. It is filed as functional, cell-based. A general note: Calcium flux is commonly read through the fluorescence of an indicator in the cells.
For data set [2], the target named is T1, Metabotropic glutamate receptor 5 (Homo sapiens, UniProt P41594). Kind of data set: Displacement of radioligand from human mGluR5b expressed in HEK293 cells at 1 uM. It is filed as cell-based.
Target sequence in this assay (P41594 21-1212 limits assumed): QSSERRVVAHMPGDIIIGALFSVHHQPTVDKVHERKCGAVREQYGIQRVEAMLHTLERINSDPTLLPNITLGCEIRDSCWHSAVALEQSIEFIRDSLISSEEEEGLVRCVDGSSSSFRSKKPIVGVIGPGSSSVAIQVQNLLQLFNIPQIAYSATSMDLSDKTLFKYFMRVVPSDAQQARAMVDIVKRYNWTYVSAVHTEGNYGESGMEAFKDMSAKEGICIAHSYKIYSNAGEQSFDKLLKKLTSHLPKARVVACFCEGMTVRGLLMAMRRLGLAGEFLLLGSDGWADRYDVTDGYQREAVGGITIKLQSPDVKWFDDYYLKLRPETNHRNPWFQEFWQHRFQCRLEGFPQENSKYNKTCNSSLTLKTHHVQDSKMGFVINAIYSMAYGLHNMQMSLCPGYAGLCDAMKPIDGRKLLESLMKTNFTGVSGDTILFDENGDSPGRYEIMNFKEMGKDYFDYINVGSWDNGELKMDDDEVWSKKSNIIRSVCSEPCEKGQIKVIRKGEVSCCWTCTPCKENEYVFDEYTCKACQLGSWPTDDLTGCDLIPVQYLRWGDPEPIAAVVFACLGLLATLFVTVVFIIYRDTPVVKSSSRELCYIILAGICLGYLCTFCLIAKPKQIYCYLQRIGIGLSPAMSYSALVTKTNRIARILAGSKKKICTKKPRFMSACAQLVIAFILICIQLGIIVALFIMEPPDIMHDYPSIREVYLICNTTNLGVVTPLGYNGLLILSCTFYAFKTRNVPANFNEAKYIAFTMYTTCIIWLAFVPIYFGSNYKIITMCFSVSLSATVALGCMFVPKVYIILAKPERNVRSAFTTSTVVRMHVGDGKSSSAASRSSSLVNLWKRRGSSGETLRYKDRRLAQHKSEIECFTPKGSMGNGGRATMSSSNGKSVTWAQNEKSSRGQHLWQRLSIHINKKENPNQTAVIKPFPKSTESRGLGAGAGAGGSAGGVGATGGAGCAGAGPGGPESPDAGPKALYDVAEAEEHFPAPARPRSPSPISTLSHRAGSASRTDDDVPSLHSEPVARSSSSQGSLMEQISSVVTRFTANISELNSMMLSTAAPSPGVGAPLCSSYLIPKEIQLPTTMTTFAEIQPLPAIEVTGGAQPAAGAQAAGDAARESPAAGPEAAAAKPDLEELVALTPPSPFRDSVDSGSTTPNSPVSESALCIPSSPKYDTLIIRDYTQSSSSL
Data set [3] addresses Metabotropic glutamate receptor 1 (Rattus norvegicus, UniProt P23385). Kind of data set: Displacement of [3H]9-Dimethylamino-3-(4-methoxy-phenyl)-3H-pyrido[3',2':4,5]thieno[3,2-d]pyrimidin-4-one from mGluR1 in rat cerebellum membrane. It is filed as cell membranes.
In data set [4] the target is T1, Metabotropic glutamate receptor 5. Kind of data set: Antagonist activity at human mGluR5b expressed in HEK293 cells assessed by measuring intracellular calcium by FLIPR assay. It is filed as functional, cell-based.
Target sequence in this assay (P41594 whole entry): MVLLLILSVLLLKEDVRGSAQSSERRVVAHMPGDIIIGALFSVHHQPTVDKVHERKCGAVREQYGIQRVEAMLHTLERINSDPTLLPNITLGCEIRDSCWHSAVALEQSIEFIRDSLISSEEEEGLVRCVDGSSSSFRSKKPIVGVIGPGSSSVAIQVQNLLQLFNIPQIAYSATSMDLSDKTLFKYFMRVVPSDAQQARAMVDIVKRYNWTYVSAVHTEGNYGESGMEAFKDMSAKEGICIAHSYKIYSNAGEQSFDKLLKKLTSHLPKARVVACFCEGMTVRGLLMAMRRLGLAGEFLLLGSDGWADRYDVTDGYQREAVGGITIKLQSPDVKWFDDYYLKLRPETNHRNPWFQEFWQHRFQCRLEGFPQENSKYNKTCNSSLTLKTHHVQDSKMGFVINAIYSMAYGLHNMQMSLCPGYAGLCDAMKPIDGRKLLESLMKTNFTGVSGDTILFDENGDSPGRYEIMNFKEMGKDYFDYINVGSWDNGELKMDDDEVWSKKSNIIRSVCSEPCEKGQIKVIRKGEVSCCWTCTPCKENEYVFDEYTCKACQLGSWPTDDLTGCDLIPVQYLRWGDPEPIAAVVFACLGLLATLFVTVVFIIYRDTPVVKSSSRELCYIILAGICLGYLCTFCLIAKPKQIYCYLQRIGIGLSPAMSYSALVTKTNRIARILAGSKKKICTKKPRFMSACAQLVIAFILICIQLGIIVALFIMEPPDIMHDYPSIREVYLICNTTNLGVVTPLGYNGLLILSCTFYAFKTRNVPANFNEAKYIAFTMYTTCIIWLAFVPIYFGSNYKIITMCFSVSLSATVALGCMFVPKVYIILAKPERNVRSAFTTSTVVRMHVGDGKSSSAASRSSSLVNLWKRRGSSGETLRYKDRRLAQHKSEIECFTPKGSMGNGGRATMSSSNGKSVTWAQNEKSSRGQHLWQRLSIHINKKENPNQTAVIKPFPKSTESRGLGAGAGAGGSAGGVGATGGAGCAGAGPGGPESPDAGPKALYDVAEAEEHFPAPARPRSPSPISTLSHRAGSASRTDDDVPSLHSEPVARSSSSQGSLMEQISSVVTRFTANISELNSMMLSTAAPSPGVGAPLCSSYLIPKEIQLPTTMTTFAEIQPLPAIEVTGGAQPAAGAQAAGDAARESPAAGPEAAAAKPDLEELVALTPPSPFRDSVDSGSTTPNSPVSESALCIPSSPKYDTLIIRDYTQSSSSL
The nature of data set [5]: AUC (0 to 6 hrs) in rat at 10 mg/kg, po by CARRS. It is filed as ADME, organism-based. Further details: time < 6 hr, dose 10 mg/kg, route oral. To be noted: plasma.
Data set [6] is described as follows: Tmax in rat at 10 mg/kg, po by CARRS. The arrangement: dose 10 mg/kg, route oral. To be noted: in vivo. It is filed as ADME, organism-based.
Data set [7] can be described thus: Cmax in rat at 10 mg/kg, po by CARRS. To be noted: in vivo. The class given is ADME, organism-based. Further details: dose 10 mg/kg, route oral.
In data set [8] the test system is Rattus norvegicus. Kind of data set: Effect on neuropathic pain in SNL rat model assessed as paw withdrawal threshold at 10 mg/kg, po. The class given is functional.
In data set [9] the test system is Rattus norvegicus. Kind of data set: Inhibition of neuropathic pain in SNL rat model at 10 mg/kg, po. The class given is functional.
The subject of data set [10] is Rattus norvegicus. Kind of data set: Effect on neuropathic pain in orally dosed SNL rat model. The class given is functional. The settings on record: po.

Some results are limits rather than exact numbers.

By IC50 is commonly meant the concentration that inhibits the measured activity by half. The Ki is the equilibrium dissociation constant of an inhibitor or competing ligand from its target. The low end stands for higher affinity, the high end for lower affinity. The term AUC(0-t) denotes the area under the concentration-time curve up to a stated or last time point. A lower AUC(0-t) goes with low exposure. Usually Tmax stands for the time from dosing to the highest level. By Cmax is commonly meant the peak of the concentration-time curve. Usually ED50 stands for the midpoint of the dose-response relation. Read a high ED50 as weaker potency.

Chain of Metabotropic glutamate receptor 1 (Rattus norvegicus, UniProt P23385) (P23385 whole entry): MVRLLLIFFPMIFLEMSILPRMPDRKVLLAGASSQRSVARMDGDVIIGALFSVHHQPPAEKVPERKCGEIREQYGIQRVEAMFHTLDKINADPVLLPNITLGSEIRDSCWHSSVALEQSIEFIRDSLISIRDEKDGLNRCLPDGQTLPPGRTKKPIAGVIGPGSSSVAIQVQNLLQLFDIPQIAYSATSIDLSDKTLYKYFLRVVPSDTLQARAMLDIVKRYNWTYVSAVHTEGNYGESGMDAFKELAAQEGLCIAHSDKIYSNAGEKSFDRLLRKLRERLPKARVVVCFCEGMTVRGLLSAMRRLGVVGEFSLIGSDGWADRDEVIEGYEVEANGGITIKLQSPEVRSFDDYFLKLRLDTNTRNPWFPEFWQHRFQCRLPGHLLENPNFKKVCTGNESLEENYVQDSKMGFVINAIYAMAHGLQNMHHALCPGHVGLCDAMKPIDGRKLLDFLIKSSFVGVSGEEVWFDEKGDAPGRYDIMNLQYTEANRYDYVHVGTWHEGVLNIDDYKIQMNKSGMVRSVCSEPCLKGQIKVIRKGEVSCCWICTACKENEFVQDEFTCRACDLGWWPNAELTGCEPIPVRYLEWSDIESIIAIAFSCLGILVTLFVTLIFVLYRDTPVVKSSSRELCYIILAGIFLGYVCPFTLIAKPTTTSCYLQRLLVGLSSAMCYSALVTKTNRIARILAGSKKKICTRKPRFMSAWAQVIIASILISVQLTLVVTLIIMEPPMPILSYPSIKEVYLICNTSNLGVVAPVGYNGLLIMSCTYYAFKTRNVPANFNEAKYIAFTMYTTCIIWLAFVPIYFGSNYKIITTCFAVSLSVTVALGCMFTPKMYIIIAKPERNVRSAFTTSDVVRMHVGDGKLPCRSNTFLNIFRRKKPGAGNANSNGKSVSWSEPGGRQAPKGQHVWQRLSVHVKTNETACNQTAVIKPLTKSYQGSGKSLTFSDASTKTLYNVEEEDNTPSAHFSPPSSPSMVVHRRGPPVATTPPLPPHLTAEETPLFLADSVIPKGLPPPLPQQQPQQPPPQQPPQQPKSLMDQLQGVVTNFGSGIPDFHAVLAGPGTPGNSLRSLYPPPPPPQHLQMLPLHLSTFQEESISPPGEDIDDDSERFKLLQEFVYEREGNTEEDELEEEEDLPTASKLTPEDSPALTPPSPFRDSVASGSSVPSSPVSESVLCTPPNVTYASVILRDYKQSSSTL
Chain of Metabotropic glutamate receptor 1 (Homo sapiens, UniProt Q13255) (Q13255 whole entry): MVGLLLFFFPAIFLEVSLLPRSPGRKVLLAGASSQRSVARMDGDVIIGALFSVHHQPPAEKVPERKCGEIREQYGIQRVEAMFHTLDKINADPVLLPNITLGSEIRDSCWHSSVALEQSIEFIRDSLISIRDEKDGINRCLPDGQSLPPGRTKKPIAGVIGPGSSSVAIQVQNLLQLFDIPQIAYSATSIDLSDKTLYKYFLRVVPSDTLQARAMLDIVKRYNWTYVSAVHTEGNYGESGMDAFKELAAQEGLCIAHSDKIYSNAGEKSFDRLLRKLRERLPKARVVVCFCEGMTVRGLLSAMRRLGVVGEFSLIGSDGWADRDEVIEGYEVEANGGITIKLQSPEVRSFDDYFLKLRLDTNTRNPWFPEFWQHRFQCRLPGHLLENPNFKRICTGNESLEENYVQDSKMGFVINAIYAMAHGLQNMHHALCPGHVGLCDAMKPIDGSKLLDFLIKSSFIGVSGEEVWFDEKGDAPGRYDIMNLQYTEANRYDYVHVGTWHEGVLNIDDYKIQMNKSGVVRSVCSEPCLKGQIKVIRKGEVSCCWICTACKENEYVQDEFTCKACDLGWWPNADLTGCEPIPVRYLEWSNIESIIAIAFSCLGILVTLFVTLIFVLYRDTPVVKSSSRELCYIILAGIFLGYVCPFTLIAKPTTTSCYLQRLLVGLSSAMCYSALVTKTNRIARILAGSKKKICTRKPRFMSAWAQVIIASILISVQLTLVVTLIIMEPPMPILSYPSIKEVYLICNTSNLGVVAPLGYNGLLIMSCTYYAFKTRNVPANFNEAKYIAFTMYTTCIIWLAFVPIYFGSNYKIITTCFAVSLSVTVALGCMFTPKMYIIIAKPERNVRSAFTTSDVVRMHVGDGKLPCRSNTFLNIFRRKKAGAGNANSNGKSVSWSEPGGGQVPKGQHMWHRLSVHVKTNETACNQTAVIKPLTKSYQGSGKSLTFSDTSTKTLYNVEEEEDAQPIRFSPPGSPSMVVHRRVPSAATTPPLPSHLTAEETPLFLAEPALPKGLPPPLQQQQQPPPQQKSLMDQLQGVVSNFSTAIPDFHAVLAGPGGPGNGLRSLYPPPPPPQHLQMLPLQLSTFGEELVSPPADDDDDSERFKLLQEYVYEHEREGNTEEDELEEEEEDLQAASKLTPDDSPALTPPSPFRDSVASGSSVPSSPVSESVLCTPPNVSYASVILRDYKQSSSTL

Regarding `Cc1ccc(-n2cnc3c(sc4ncc5cn[nH]c5c43)c2=O)cc1`, in data set [1], the IC50 is 16.8 nM. Besides, the Activity in [2] stood at 5%. The Ki in [3] was 17.8 nM.

On to `Cc1ccc(-n2cnc3c(sc4ncc5sc(=O)[nH]c5c43)c2=O)cc1`, for which, in data set [1], the IC50 is 446 nM. In addition, the Activity in [2] was -8%. Further, in data set [3], affinity was put at a Ki of 1000 nM.

Consider `Cn1cnc2cnc3sc4c(=O)n(-c5ccc(Cl)cc5)cnc4c3c21`, for which, in data set [2], the Activity worked out at 0.15%. In [3], this compound yielded an inhibition constant Ki of 104 nM.

For the compound `C[C@@H]1CNc2c(cnc3sc4c(=O)n(-c5ccc(Cl)cc5)cnc4c23)O1`, the IC50 in data set [4] was over 1000 nM. This compound also showed a Ki in data set [3] of 0.2 nM. For the same compound, the AUC(0-t) at 6 h in data set [5] worked out at 5.19 µM·h. The time to peak (Tmax) in data set [6] stood at 0.5 h. The compound further came in with a Cmax in data set [7] of 1420 nM. Further, in the data set with Rattus norvegicus [8], the Activity is reported as 10.9 g. In the data set on Rattus norvegicus [9], this compound came in with an MPE of 68%.

As for `O=c1c2sc3ncc4nc[nH]c4c3c2ncn1-c1ccc(Cl)cc1`, in [2], the Activity is -1.7%. For the same compound, the affinity in [3], expressed as Ki, was 10.8 nM.

For `O=c1c2sc3ncc4cn[nH]c4c3c2ncn1-c1ccc(Cl)cc1`, the Activity in data set [2] is -12%. In data set [3], this compound returned an inhibitory constant (Ki) of 19.6 nM.

`CSc1nc2c(cnc3sc4c(=O)n(-c5ccc(C)cc5)cnc4c32)s1`: the IC50 in [1] stood at 636 nM. Moreover, the Activity in data set [2] is -2%. Also, the affinity in [3], expressed as Ki, was 788 nM.

`COc1ccc(-n2cnc3c(sc4ncc5c(c43)NCCO5)c2=O)cc1`: the IC50 in data set [4] was over 1000 nM. The same compound displayed a Ki in data set [3] of 1 nM. The compound further came in with an AUC(0-t) at 6 h in [5] of 1.56 µM·h. The Tmax in data set [6] stood at 2 h. In addition, in data set [7], the concentration peaked (Cmax) at 467 nM. Besides, in the data set on Rattus norvegicus [8], the Activity turned out to be 8.5 g. This compound also displayed an MPE with Rattus norvegicus [9] of 50%. The compound further came in with an ED50 in the data set with Rattus norvegicus [10] of 8 mg/kg.

`COc1ccc(-n2cnc3c(sc4nccc(N(C)C)c43)c2=O)cc1`: the IC50 in data set [1] worked out at 9.5 nM; in data set [4], 10000 nM. This compound had a Ki in [3] of 7.9 nM. This compound gave an AUC(0-t) at 6 h in [5] of 1.93 µM·h. Moreover, the time of peak concentration (Tmax) in data set [6] stood at 0.5 h. In data set [7], this compound gave a Cmax of 564 nM. In addition, the Activity in the data set with Rattus norvegicus [8] is on record as 13.2 g. Moreover, the MPE in the data set on Rattus norvegicus [9] worked out at 87%.

Consider `O=c1c2sc3ncc4c(c3c2ncn1-c1ccc(Cl)cc1)NCCO4`, for which, in data set [4], the IC50 was over 1000 nM. Also, the affinity in data set [3], expressed as Ki, was 0.4 nM. The AUC(0-t) at 6 h in data set [5] was determined as 0.366 µM·h. In [6], the time of peak concentration (Tmax) was 1 h. The peak concentration (Cmax) in data set [7] came to 198 nM. The Activity in the data set with Rattus norvegicus [8] worked out at 11.8 g. The same compound gave an MPE in the data set on Rattus norvegicus [9] of 73%. Also, the ED50 in the data set on Rattus norvegicus [10] was determined as 5.1 mg/kg.

On to `C[C@H]1COc2cnc3sc4c(=O)n(-c5ccc(Cl)cc5)cnc4c3c2N1`, for which the IC50 in [4] is over 1000 nM. The compound also showed a Ki in data set [3] of 0.5 nM.

In the case of `Cc1ccc(-n2cnc3c(sc4ncc5sc(=S)[nH]c5c43)c2=O)cc1`, the IC50 in data set [1] is 541 nM. For the same compound, in data set [2], the Activity is -10%. In addition, in data set [3], the Ki is 1000 nM.

On to `Cc1ccc(-n2cnc3c(sc4ncc5cc[nH]c5c43)c2=O)cc1`, for which the IC50 in data set [4] is over 1000 nM. The compound also had an inhibition constant (Ki) in data set [3] of 16.9 nM. Besides, the AUC(0-t) at 6 h in data set [5] stood at 0.035 µM·h. In data set [6], the Tmax was found to be 0.5 h. This compound displayed a Cmax in [7] of 71 nM.

As to `C[C@@H]1COc2cnc3sc4c(=O)n(-c5ccc(Cl)cc5)cnc4c3c2N1`, the IC50 was 24.4 nM in [1] and over 1000 nM in [4]. In data set [3], this compound displayed a Ki of 9.1 nM.

As for `O=c1c2sc3ncc4cc[nH]c4c3c2ncn1-c1ccc(Cl)cc1`, the Activity in data set [2] was found to be 1.7%. Besides, affinity in data set [3] was put at a Ki of 2.4 nM. In data set [5], this compound yielded an AUC(0-t) at 6 h of 0.018 µM·h. Besides, the Tmax in [6] came out at 0.5 h. In [7], this compound showed a Cmax of 37 nM.

For the compound `C[C@H]1CNc2c(cnc3sc4c(=O)n(-c5ccc(Cl)cc5)cnc4c23)O1`, in data set [4], the IC50 was over 1000 nM. This compound also registered a Ki in data set [3] of 1.5 nM. The AUC(0-t) at 6 h in data set [5] is 8.43 µM·h. Further, the Tmax in data set [6] stood at 2 h. In data set [7], this compound came in with a Cmax of 2050 nM. Moreover, the Activity in the data set with Rattus norvegicus [8] amounted to 7.7 g. In the data set on Rattus norvegicus [9], this compound yielded an MPE of 44%.

As to `COc1ccc(-n2cnc3c(sc4ncc5c(c43)NC[C@@H](C)O5)c2=O)cc1`, the IC50 in [1] was 2.4 nM; in [4], over 1000 nM. Further, the Ki in data set [3] was found to be 0.3 nM.

As for `COc1ccc(-n2cnc3c(sc4ncc5cc[nH]c5c43)c2=O)cc1`, the IC50 in data set [4] is over 10000 nM. The Ki in data set [3] was determined as 28.6 nM. Besides, the AUC(0-t) at 6 h in data set [5] came out at 1.32 µM·h. Moreover, in [6], the time to peak (Tmax) was 2 h. Besides, the peak level in data set [7] (Cmax) was 394 nM. The Activity with Rattus norvegicus [8] turned out to be 6.6 g. The same compound displayed an MPE in the data set on Rattus norvegicus [9] of 39%.

Consider `CNc1c(Br)cnc2sc3c(=O)n(-c4ccc(Cl)cc4)cnc3c12`, for which the IC50 in data set [1] stood at 5.9 nM.

On to `Cc1ccc(-n2cnc3c(sc4ncc5c(c43)NC[C@@H](C)O5)c2=O)cc1`, for which the IC50 in [4] stood at 609 nM. The Ki in data set [3] is 0.6 nM.

For the compound `Cc1ccc(-n2cnc3c(sc4ncc5c(c43)NCCO5)c2=O)cc1`, the IC50 in data set [4] was 702 nM. In data set [3], the Ki was determined as 0.5 nM. This compound also yielded an AUC(0-t) at 6 h in [5] of 0.077 µM·h. Also, the Tmax in data set [6] came out at 1 h. In addition, the peak level in data set [7] (Cmax) was 70 nM.

Source of the values: ChEMBL document CHEMBL1137615, “Discovery of orally efficacious tetracyclic metabotropic glutamate receptor 1 (mGluR1) antagonists for the treatment of chronic pain” (J Med Chem, 2007).
